Data reported in ChEMBL document CHEMBL1201862, “PubChem BioAssay data set” (2004).
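Briefly, cells in 96-well plates were exposed to five compound concentrations for 48 h, and endpoints were estimated by linear interpolation. GI50 is the concentration that inhibits growth by half.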 The source made the active and inactive calls. Rule as the data show it: active = GI50 up to about 1.1 µM and inactive = higher.

Columns and labels:
Experiment in all cases: inhibition of tumour cell growth, NCI panel, 48 h
SNB-75 = test system: SNB-75
SK-OV-3 = test system: SK-OV-3
SR = test system: SR
TK-10 = test system: TK-10
PC-3 = test system: PC-3
HT-29 = test system: HT-29
OVCAR-3 = test system: OVCAR-3
OVCAR-8 = test system: OVCAR-8
MDA-N = test system: MDA-N
KM12 = test system: KM12
CCRF-CEM = test system: CCRF-CEM
RXF 393 = test system: RXF 393
U-251 = test system: U-251
SF-295 = test system: SF-295
SNB-19 = test system: SNB-19
OVCAR-5 = test system: OVCAR-5
DU-145 = test system: DU-145
SF-539 = test system: SF-539
RPMI-8226 = test system: RPMI-8226

Measured: GI50

O=c1[nH]c(=O)n(C2CC(O)C(CO)O2)cc1OCC1CCCCC1 (stereo unspecified)
inactive: SNB-75 > 100 µM | SK-OV-3 > 100 µM | SR > 100 µM | TK-10 > 100 µM | PC-3 > 100 µM | HT-29 > 100 µM | OVCAR-3 > 100 µM | OVCAR-8 > 100 µM | MDA-N > 100 µM | KM12 > 100 µM | CCRF-CEM > 100 µM | RXF 393 > 100 µM | U-251 > 100 µM | SF-295 > 100 µM | SNB-19 > 100 µM | OVCAR-5 > 100 µM | DU-145 > 100 µM

C[C@@H](c1ccccc1)N1CN(C(=O)OCc2ccccc2)C(C)(C)CC1=O
inactive: SNB-75 > 100 µM | SK-OV-3 > 100 µM | SR 86.3 µM | TK-10 > 100 µM | PC-3 > 100 µM | HT-29 > 100 µM | OVCAR-3 > 100 µM | OVCAR-8 > 100 µM | MDA-N > 100 µM | KM12 > 100 µM | CCRF-CEM > 100 µM | RXF 393 15.5 µM | SF-539 > 100 µM | U-251 > 100 µM | SF-295 > 100 µM | SNB-19 > 100 µM | OVCAR-5 > 100 µM | RPMI-8226 > 100 µM | DU-145 > 100 µM

O=C(NNC(=O)c1ccc(Cl)cc1NC(=O)C12CC3CC(CC(C3)C1)C2)c1ccc(Cl)cc1
inactive: SK-OV-3 25.3 µM | SR 28.8 µM | TK-10 20.1 µM | PC-3 26.8 µM | HT-29 28.2 µM | OVCAR-3 19.5 µM | OVCAR-8 32.7 µM | MDA-N 22 µM | KM12 20.3 µM | CCRF-CEM 23.4 µM | RXF 393 19.5 µM | SF-539 23.7 µM | U-251 20.2 µM | SF-295 22.9 µM | SNB-19 19.1 µM | OVCAR-5 28.3 µM | RPMI-8226 15.7 µM | DU-145 22.8 µM

O=C1CCCC2C(O)CCC[C@H]12 (stereo partly specified)
inactive: SNB-75 > 100 µM | SK-OV-3 > 100 µM | SR > 100 µM | TK-10 > 100 µM | PC-3 > 100 µM | HT-29 > 100 µM | OVCAR-8 > 100 µM | MDA-N > 100 µM | KM12 > 100 µM | CCRF-CEM > 100 µM | RXF 393 11.4 µM | SF-539 > 100 µM | U-251 > 100 µM | SF-295 > 100 µM | SNB-19 > 100 µM | OVCAR-5 > 100 µM | DU-145 > 100 µM
